# Source: PMC3707936 (Molecular cancer therapeutics, 2013)
# Where two headings read alike, the source gives them in different places. *1 amine or outer side, *2 acyl side, *3 side chain or, on linkers, in order; H or OH if unused. Where a SMILES comes first, the peptide text is derived from it. Bridges are numbered along the chain shown (N, C = ends). Roman numbers before positions name the chains, in order. [ ]: non-standard residue; d: D form. Actinocin(9to1) = Cc1c2oc3c(C)ccc(C(=O)[*:1])c3nc-2c(C(=O)[*:2])c(N)c1=O; NMeV = CN[C@H](C(=O)O)C(C)C; Sar = CNCC(=O)O
# Tests used:
# Type in all cases: cell-based
# GIST 882 cells [1] = assay: Quantitative drug screen, CellTiter-Blue cell viability, GIST 882; conditions: Homo sapiens, GIST882, 72 h, read-out: IC50 GIST 882
# GIST T1-10R cells [2] = assay: Quantitative drug screen, CellTiter-Blue cell viability, GIST T1-10R; conditions: 72 h, read-out: IC50 GIST TI-10R
# ULTR cells = assay: Quantitative drug screen, CellTiter-Blue cell viability, ULTR; conditions: read-out: IC50 ULTR
# GIST 882 cells [3] = assay: Hit validation cell proliferation, 12-point dose-response, GIST 882; conditions: Homo sapiens, GIST882, 72 h, read-out: IC50 GIST 882
# GIST T1-10R cells [4] = assay: Hit validation cell proliferation, 12-point dose-response, GIST T1-10R; conditions: 72 h, read-out: IC50 GIST T1-10R
# Hs 919.T. cells [5] = assay: Hit validation cell proliferation, 12-point dose-response, Hs 919.T.; conditions: read-out: IC50 Hs 919.T.
# Hs 919.T. cells [6] = assay: Drug screen assay in Hs 919.T. cell line at 1 μM; conditions: 72 h; for inhibition at 1 µM: read-out: inhibition against Hs 919.T. cell proliferation
# GIST-T1 cells = assay: Quantitative drug screen, CellTiter-Blue cell viability, GIST-T1; conditions: read-out: IC50 GIST-T1
Compound,IC50 (GIST 882 cells [1]) [nM],IC50 (GIST T1-10R cells [2]) [nM],IC50 (ULTR cells; 72 h) [nM],inhibition at 1 µM (Hs 919.T. cells [6]) [%],further results
CC(=O)[C@]1(O)Cc2c(O)c3c(c(O)c2[C@@H](O[C@H]2C[C@H](N)[C@H](O)[C@H](C)O2)C1)C(=O)c1ccccc1C3=O [Idarubicin],50,690,< 70,> 50,IC50 (GIST 882 cells [3]): 130 ± 40 nM; IC50 (GIST T1-10R cells [4]): 50 ± 10 nM; IC50 (Hs 919.T. cells [5]): 70 ± 3 nM
CCOC(=O)n1ccn(C)c1=S [Carbimazole],50,180,< 70,–,–
Plicamycin,–,–,–,–,IC50 (GIST-T1 cells): 350 nM; IC50 (ULTR cells): 150 nM; inhibition against Hs 919.T. cell proliferation (Hs 919.T. cells [6]; 1 μM drug): greater than 50%
Nc1nc(Cl)nc2c1ncn2[C@H]1C[C@H](O)[C@@H](CO)O1 [Cladribine],760,> 1000,540,–,–
COc1cccc2c1C(=O)c1c(O)c3c(c(O)c1C2=O)C[C@@](O)(C(=O)CO)C[C@@H]3O[C@H]1C[C@H](N)[C@H](O)[C@H](C)O1 [Doxorubicin],80,> 1000,160,> 50,–
COc1cc([C@@H]2c3cc4c(cc3[C@@H](O[C@@H]3O[C@@H]5CO[C@@H](c6cccs6)O[C@H]5[C@H](O)[C@H]3O)[C@H]3COC(=O)[C@H]23)OCO4)cc(OC)c1O [Teniposide],90,> 1000,190,–,–
CC(C)C[C@H](NC(=O)[C@H](Cc1ccccc1)NC(=O)c1cnccn1)B(O)O [Bortezomib],< 70,500,< 70,> 50,IC50 (GIST 882 cells [3]): 2 ± 0.3 nM; IC50 (GIST T1-10R cells [4]): 1 ± 1 nM; IC50 (Hs 919.T. cells [5]): 150 ± 10 nM
"Cc1c2oc3c(C)ccc(C(=O)N[C@@H]4C(=O)N[C@H](C(C)C)C(=O)N5CCC[C@H]5C(=O)N(C)CC(=O)N(C)[C@@H](C(C)C)C(=O)O[C@@H]4C)c3nc-2c(C(=O)N[C@@H]2C(=O)N[C@H](C(C)C)C(=O)N3CCC[C@H]3C(=O)N(C)CC(=O)N(C)[C@@H](C(C)C)C(=O)O[C@@H]2C)c(N)c1=O [Dactinomycin] (I: T[dV]P[Sar][NMeV] / II: T[dV]P[Sar][NMeV]; ester I:1-I:C, II:1-II:C; linker I:N-II:N via Actinocin(9to1))",< 70,> 1000,< 70,> 50,–
COc1cc([C@@H]2c3cc4c(cc3[C@@H](O[C@@H]3O[C@@H]5CO[C@@H](C)O[C@H]5[C@H](O)[C@H]3O)[C@H]3COC(=O)[C@H]23)OCO4)cc(OC)c1O [Etoposide],30,> 1000,> 1000,–,–
CN(C)c1ccc(C(=C2C=CC(=[N+](C)C)C=C2)c2ccc(N(C)C)cc2)cc1 [Gentian Violet],250,960,160,–,–
CC[C@@]1(O)C(=O)OCc2c1cc1n(c2=O)Cc2cc3c(CN(C)C)c(O)ccc3nc2-1 [Topotecan],440,> 1000,90,–,–
CCN(CC)CCCC(C)Nc1ccnc2cc(Cl)ccc12 (centres unmarked) [Chloroquine],460,> 1000,> 1000,–,–
COC(=O)Nc1nc2ccc(C(=O)c3ccccc3)cc2[nH]1 [Mebendazole],> 1000,> 1000,730,–,–
Nc1nc(F)nc2c1ncn2[C@@H]1O[C@H](COP(=O)(O)O)[C@@H](O)[C@@H]1O [Fludarabine Phosphate],> 1000,810,> 1000,–,IC50 (GIST 882 cells [3]): 540 ± 30 nM; IC50 (GIST T1-10R cells [4]): 840 ± 200 nM
CC(=O)O[C@H]1C(=O)[C@@]2(C)[C@H]([C@H](OC(=O)c3ccccc3)[C@]3(O)C[C@H](OC(=O)[C@H](O)[C@@H](NC(=O)c4ccccc4)c4ccccc4)C(C)=C1C3(C)C)[C@]1(OC(C)=O)CO[C@@H]1C[C@@H]2O [Paclitaxel],> 1000,> 1000,200,–,–
COc1cccc2c1C(=O)c1c(O)c3c(c(O)c1C2=O)C[C@@](O)(C(C)=O)C[C@@H]3O[C@H]1C[C@H](N)[C@H](O)[C@H](C)O1 [Daunorubicin],170,> 1000,< 70,> 50,–
C[C@H]1O[C@@H](O[C@H]2[C@@H](O)C[C@H](O[C@H]3[C@@H](O)C[C@H](O[C@H]4CC[C@@]5(C)[C@H](CC[C@@H]6[C@@H]5CC[C@]5(C)[C@@H](C7=CC(=O)OC7)CC[C@]65O)C4)O[C@@H]3C)O[C@@H]2C)C[C@H](O)[C@@H]1O [Digitoxin],160,> 1000,< 70,–,–
Cc1cn(-c2cc(NC(=O)c3ccc(C)c(Nc4nccc(-c5cccnc5)n4)c3)cc(C(F)(F)F)c2)cn1 [Nilotimb],–,–,–,–,"IC50 (GIST-T1 cells; primary screen, 72 h, 10 μM to […] twofold dilutions, * = IC50 < 0.07 μM and drug showed no dose response): 380 nM"
C[C@@H]1O[C@@H](O[C@H]2C[C@@H](O)[C@]3(CO)[C@H]4[C@H](O)C[C@]5(C)[C@@H](C6=CC(=O)OC6)CC[C@]5(O)[C@@H]4CC[C@]3(O)C2)[C@H](O)[C@H](O)[C@H]1O [Ouabain],30,240,< 70,–,–
Nc1nc(Cl)nc2c1ncn2[C@@H]1O[C@H](CO)[C@@H](O)[C@@H]1F [Clofarabine],990,> 1000,180,–,–
CCC1=C[C@@H]2CN(C1)Cc1c([nH]c3ccccc13)[C@@](C(=O)OC)(c1cc3c(cc1OC)N(C)[C@H]1[C@@](O)(C(=O)OC)[C@H](OC(C)=O)[C@]4(CC)C=CCN5CC[C@]31[C@@H]54)C2 [Vinorelbine],> 1000,> 1000,80,> 50,–
CCCSc1ccc2nc(NC(=O)OC)[nH]c2c1 [Albendazole],> 1000,> 1000,320,–,–
C[C@H]1O[C@@H](O[C@H]2[C@@H](O)C[C@H](O[C@H]3[C@@H](O)C[C@H](O[C@H]4CC[C@@]5(C)[C@H](CC[C@@H]6[C@@H]5C[C@@H](O)[C@]5(C)[C@@H](C7=CC(=O)OC7)CC[C@]65O)C4)O[C@@H]3C)O[C@@H]2C)C[C@H](O)[C@@H]1O [Digoxin],790,930,160,> 50,–
O=C1c2c(O)ccc(O)c2C(=O)c2c(NCCNCCO)ccc(NCCNCCO)c21 [Mitoxantrone],80,> 1000,< 70,> 50,–
COc1cc(NS(C)(=O)=O)ccc1Nc1c2ccccc2nc2ccccc12 [Amsacrine],> 1000,> 1000,> 1000,–,–
C#C[C@]1(O)CC[C@H]2[C@@H]3CCC4=Cc5oncc5C[C@]4(C)[C@H]3CC[C@@]21C [Danazol],670,> 1000,> 1000,–,–
